These results are taken from ChEMBL document CHEMBL1142112, “Antiproliferative xanthones of Terminalia calcicola from the Madagascar rain forest” (J Nat Prod, 2007).

The subject of the test is A2780. Briefly: Antiproliferative activity against human A2780 cells. Type of test: cell-based.

pIC50: −log10 of the molar value.

Take `CC(C)=CCc1c(O)c(O)cc2oc3c4c(cc(O)c3c(=O)c12)OC(C)(C)C=C4`: the pIC50 was 5.09.

In turn, `CC(C)=CCc1c(O)ccc2oc3c(O)c4c(c(O)c3c(=O)c12)C=CC(C)(C)O4` [TERMICALCICOLANONE A] had a negative logarithm of the IC50 (pIC50) of 4.39.
